System: venous ulcer
Test: Case of a person with venous ulcer and related conditions treated with oral isotretinoin
Assay type: in vivo, human
Conditions: approximately 80 milligrams per day for two months
Excerpt: Preferred unit dosage formulations are those containing a daily dose or unit, daily sub-dose, or an appropriate fraction thereof, of the administered ingredient. […] Acad. of Dermatol, 45, 462-465, which is herein incorporated by reference.

SMILES: CC1=C(/C=C/C(C)=C/C=C/C(C)=C\C(=O)O)C(C)(C)CCC1 [isotretinoin, 13-cis-retinoic acid]
- overall clinical outcome of venous ulcer and related conditions (person having venous ulcer and related conditions for five months): significant improvement
- lesions (person): improved
- venous ulcer healing (person): healed
- vessel prominence (person): significantly decreased
